The target of experiment [1] is T1, PI3Kγ (p120γ) (Homo sapiens, UniProt P48736).
T1 construct: purchased Promega V1761
Briefly: Inhibition of PI3K kinase activity (ADP Glo), PI3Kγ. Conditions: read-out: biochemical potency (PI3Kγ IC50). Here is the method:
Compounds were evaluated to determine the potency with which they inhibited the kinase activity of the Class I PI3K subunits p110α/p85α (Promega, Cat #V1721), p110β/p85α (Promega, Cat #V1751), p120γ (Promega, Cat #V1761) and p110δ/p85α (Promega, Cat #V1771). Activity was determined as a function of ADP (adenosine diphosphate) generated from ATP consumed during the phosphorylation of Phosphatidylinositol 4,5-bisphosphate (PIP2) (Promega, Cat #V1701) to yield Phosphatidylinositol (3,4,5)-trisphosphate (PIP3). ADP levels in the assay mixture at the end of the reaction were quantitated using ADP Glo (Promega, Cat #V9103) according to the manufacturer's recommended protocol.
Enzyme was prepared for each of the PI3K subunits in 100 mM HEPES, pH 7.4, 100 mM NaCl, 6 mM MgCl2 and 0.05% BSA. p110α/p85α was prepared at 2 nM (2×), p110β/p85α was prepared at 7 nM (2×), p120γ was prepared at 8 nM (2×) and p110δ/p85α was prepared at 2 nM (2×). Five microliters of 2× enzyme dilution of each PI3K subunit were added to a 384-well white Opti-plates pre-dispensed with compound and allowed to incubate for 1 h at rt. A substrate mix containing 0.1 mg/ml (2×) of PIP2 and 50 μM (2×) ATP (Promega, Cat #V915) was prepared in 25 mM HEPES and 0.5 mM EGTA. Reactions were initiated by addition of 5 μl of 2× substrate mix to each well of the plates containing various PI3K isoforms and allowed to proceed for 60 min at rt. Ten microliters of ADP Glo reagent 1 were added to the wells of each plate and allowed to incubate at rt for 45 min according to the manufacturer's directions. Following incubation, 20 μl of ADP Glo reagent 2 was added to each plate and allowed to incubate for an additional 45 min. Luminescent signal, generated by ADP Glo, was quantified by reading on a Perkin Elmer Envision multimode reader. Compound potencies (IC50's) were determined using a standard 4-parameter fit non-linear regression fit.
On the technique in general: In ADP-Glo the light output rises with the ADP produced.

Experiment [2] addresses T2, PI3Kγ (Homo sapiens, UniProt P48736).
T2 construct: host or cells: THP-1
Briefly: PI3Kγ cellular assay in THP-1 cells (AKT pS473 AlphaLISA). The class given is cell-based. Here is the method: Twenty microliters of serum starved THP-1 cells were added to the compound plate in serum free DMEM at a density of 9×10^6 cells per ml. Final assay conditions comprised 1.8×10^5 THP-1 cells per well with test compounds in 2% DMSO across a concentration range from 4 nM to 30 μM. […] Briefly, 10 μL of 4× lysis buffer was added to cells after stimulation. Following 60 min incubation at rt, 10 μL of cell lysate was transferred to a fresh 384-well Opti-plate to which 5 μL of AlphaLisa acceptor beads and 5 μL of AlphaLisa donor beads had been added. […] PI3Kγ activity was evaluated as a correlate of endogenous AKT phosphorylation levels. Percentage maximum activity in each test well was calculated based on DMSO (100% activity) and positive control treated cell wells (0% activity). The potencies (IC50's) of test compounds were determined using a standard 4-parameter fit non-linear regression fit.
(In general: Bead proximity is the source of the signal in Alpha formats.)

Where [3] appears, read: Table 6, rhMCP-1 stimulated AKT pS473, read-out: cellular potency (PI3Kγ IC50).
[4] abbreviates: Table 2, rhMCP-1 stimulated AKT pS473, read-out: cellular potency (PI3Kγ IC50).
Where [5] appears, read: AKT pS473, read-out: cellular potency (PI3Kγ IC50).
[6] abbreviates: Table 1, rhMCP-1 stimulated AKT pS473, read-out: cellular potency (PI3Kγ IC50).
[7] abbreviates: Table 3, rhMCP-1 stimulated AKT pS473, read-out: cellular potency (PI3Kγ IC50).

Where two headings read alike, the source gives them in different places.

T1 sequence (P48736 whole entry): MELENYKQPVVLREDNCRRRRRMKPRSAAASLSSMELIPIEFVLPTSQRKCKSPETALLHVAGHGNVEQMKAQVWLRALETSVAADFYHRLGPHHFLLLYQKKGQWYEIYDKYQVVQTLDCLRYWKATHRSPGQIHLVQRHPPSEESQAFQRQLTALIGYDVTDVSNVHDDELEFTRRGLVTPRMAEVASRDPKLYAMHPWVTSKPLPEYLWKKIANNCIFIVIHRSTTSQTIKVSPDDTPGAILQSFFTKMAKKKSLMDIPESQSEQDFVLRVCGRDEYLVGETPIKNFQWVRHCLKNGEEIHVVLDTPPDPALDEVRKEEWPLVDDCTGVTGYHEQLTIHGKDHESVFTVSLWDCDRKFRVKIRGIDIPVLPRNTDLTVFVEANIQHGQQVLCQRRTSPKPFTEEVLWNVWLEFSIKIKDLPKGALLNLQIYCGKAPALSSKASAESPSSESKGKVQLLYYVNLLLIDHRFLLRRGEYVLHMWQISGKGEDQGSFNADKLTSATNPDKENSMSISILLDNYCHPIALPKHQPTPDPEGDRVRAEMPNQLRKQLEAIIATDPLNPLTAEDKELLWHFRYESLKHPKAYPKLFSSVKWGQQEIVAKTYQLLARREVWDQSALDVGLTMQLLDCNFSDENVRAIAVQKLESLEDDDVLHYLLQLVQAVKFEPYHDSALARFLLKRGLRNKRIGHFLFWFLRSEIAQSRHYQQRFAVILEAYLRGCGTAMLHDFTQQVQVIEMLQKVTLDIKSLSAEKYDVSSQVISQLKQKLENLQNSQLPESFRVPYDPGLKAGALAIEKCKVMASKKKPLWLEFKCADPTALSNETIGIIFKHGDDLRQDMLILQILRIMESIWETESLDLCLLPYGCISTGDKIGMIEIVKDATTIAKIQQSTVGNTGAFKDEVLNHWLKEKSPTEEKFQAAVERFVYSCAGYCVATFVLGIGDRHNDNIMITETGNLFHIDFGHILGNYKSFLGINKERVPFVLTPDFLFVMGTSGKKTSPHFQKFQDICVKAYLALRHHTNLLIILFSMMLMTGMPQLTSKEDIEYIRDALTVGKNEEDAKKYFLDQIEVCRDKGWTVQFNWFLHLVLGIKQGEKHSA
T2 sequence (P48736 whole entry): as above

For `C[C@@H](C1CC1)N1Cc2cc(-c3ccn4nc(N)c(C(=O)N[C@H]5CNC[C@@H]5O)c4n3)cc(OC(F)(F)F)c2C1=O` [Example 424], the IC50 in experiment [1] (Table 6, p120γ) was less than 100 nM; in experiment [2] (setting [3]) it was more than 1000 nM.
In the case of `Cc1cc(-c2ccn3nc(N)c(C(=O)N[C@H]4CCC[C@H]4O)c3n2)cc2c1C(=O)N([C@@H](C)C1CC1)C2` [Example 264], the IC50 in experiment [1] (Table 2, p120γ) is less than 100 nM; in experiment [2] (setting [4]) it was 100 to 1000 nM.
With `C[C@@H](C1CC1)N1Cc2cc(-c3ccn4nc(N)c(C(=O)N[C@H]5C[C@H](O)C5)c4n3)cc(S(C)(=O)=O)c2C1=O` [Example 445], the 50% inhibitory concentration (IC50) in experiment [1] (Table 6, p120γ) was less than 100 nM; in experiment [2] (setting [3]), 100 to 1000 nM.
As for `C[C@@H](C1CC1)N1Cc2cc(-c3ccn4nc(N)c(C(=O)Nc5ccccc5F)c4n3)cc(NS(C)(=O)=O)c2C1=O` [Example 397], the 50% inhibitory concentration (IC50) is less than 100 nM in experiment [1] and 100 to 1000 nM in experiment [2] (setting [5]).
Turning to `Cc1cc(-c2ccn3nc(N)c(C(=O)NCc4ccncc4)c3n2)cc2c1C(=O)N([C@@H](C)C1CC1)C2` [Example 201], the IC50 in experiment [1] (Table 2, p120γ) is less than 100 nM; in experiment [2] (setting [4]) it was 100 to 1000 nM.
Consider `C[C@@H](C1CC1)N1Cc2cc(-c3ccn4nc(N)c(C(=O)N[C@@H](CO)C5CC5)c4n3)cc(C(C)(C)O)c2C1=O` [Example 453], for which the half-maximal inhibitory concentration (IC50) in experiment [1] (Table 6, p120γ) was less than 100 nM; in experiment [2] (setting [3]) it was 100 to 1000 nM.
Consider `Cc1cc(-c2ccn3nc(N)c(C(=O)NC(C)(C)c4ccncc4)c3n2)cc2c1C(=O)N([C@@H](C)C1CC1)C2` [Example 248], for which the concentration for half-maximal inhibition (IC50) was less than 100 nM in experiment [1] (Table 2, p120γ) and 100 to 1000 nM in experiment [2] (setting [4]).
For `CNS(=O)(=O)c1cc(-c2ccn3nc(N)c(C(=O)NC4CC4)c3n2)cc2c1C(=O)N([C@@H](C)C(F)(F)F)C2` [Example 139, 2-Amino-N-cyclopropyl-5-[7-(methylsulfamoyl)-1-oxo-2-[(2S)-1,1,1-trifluoropropan-2-yl]-2,3-dihydro-1H-isoindol-5-yl]pyrazolo[1,5-a]pyrimidine-3-carboxamide], the IC50 was less than 100 nM in experiment [1] (Table 1, p120γ) and less than 100 nM in experiment [2] (setting [6]).
Take `C[C@@H](C1CC1)N1Cc2cc(-c3ccn4nc(N)c(C(=O)N[C@H]5CC[C@@](C)(O)CC5)c4n3)cc(S(C)(=O)=O)c2C1=O` [Example 131, 2-Amino-5-{2-[(1S)-1-cyclopropylethyl]-7-methanesulfonyl-1-oxo-2,3-dihydro-1H-isoindol-5-yl}-N-[cis-4-hydroxy-4-methylcyclohexyl]pyrazolo[1,5-a]pyrimidine-3-carboxamide]: the IC50 is less than 100 nM in experiment [1] (Table 1, p120γ) and less than 100 nM in experiment [2] (setting [6]).
Turning to `CCS(=O)(=O)Nc1cc(-c2ccn3nc(N)c(C(=O)Nc4cccnc4)c3n2)cc2c1C(=O)N([C@@H](C)C1CC1)C2` [Example 112, 2-Amino-5-{2-[(1S)-1-cyclopropylethyl]-7-ethanesulfonamido-1-oxo-2,3-dihydro-1H-isoindol-5-yl}-N-(pyridin-3-yl)pyrazolo[1,5-a]pyrimidine-3-carboxamide], the IC50 was less than 100 nM in experiment [1] (Table 1, p120γ) and less than 100 nM in experiment [2] (setting [6]).
In the case of `Cc1cc(-c2ccn3nc(N)c(C(=O)N[C@@H](CO)C(C)(C)C)c3n2)cc2c1C(=O)N([C@@H](C)C1CC1)C2` [Example 237], the concentration for half-maximal inhibition (IC50) in experiment [1] (Table 2, p120γ) is less than 100 nM; in experiment [2] (setting [4]) it was 100 to 1000 nM.
Take `C[C@@H](C1CC1)N1Cc2cc(-c3ccn4nc(N)c(C(=O)NCCCS(C)(=O)=O)c4n3)cc(C(F)(F)F)c2C1=O` [Example 336]: the half-inhibitory concentration (IC50) in experiment [1] (Table 3, p120γ) is less than 100 nM; in experiment [2] (setting [7]), 100 to 1000 nM.
Turning to `Cc1nn(C)cc1NC(=O)c1c(N)nn2ccc(-c3cc4c(c(OC(F)F)c3)C(=O)N([C@@H](C)C3CC3)C4)nc12` [Example 429], the IC50 was less than 100 nM in experiment [1] (Table 6, p120γ) and less than 100 nM in experiment [2] (setting [3]).
For the compound `Cc1cc(-c2ccn3nc(N)c(C(=O)N[C@@H]4CC[C@@H](O)C4)c3n2)cc2c1C(=O)N([C@@H](C)C1CC1)C2` [Example 5, 2-Amino-5-{2-[(1S)-1-cyclopropylethyl]-7-methyl-1-oxo-2,3-dihydro-1H-isoindol-5-yl}-N-[(1R,3R)-3-hydroxycyclopentyl]pyrazolo[1,5-a]pyrimidine-3-carboxamide], the half-maximal inhibitory concentration (IC50) in experiment [1] (Table 1, p120γ) is less than 100 nM; in experiment [2] (setting [6]), less than 100 nM.
`C[C@@H](C1CC1)N1Cc2cc(-c3ccn4nc(N)c(C(=O)N[C@H]5CC[C@H](C(C)(C)O)CC5)c4n3)cc(C(F)(F)F)c2C1=O` [Example 61, 2-Amino-5-(2-((S)-1-cyclopropylethyl)-1-oxo-7-(trifluoromethyl)isoindolin-5-yl)-N-(trans-4-(2-hydroxypropan-2-yl)cyclohexyl)pyrazolo[1,5-a]pyrimidine-3-carboxamide]: the concentration for half-maximal inhibition (IC50) in experiment [1] (Table 1, p120γ) is less than 100 nM; in experiment [2] (setting [6]) it was less than 100 nM.
On to `Cc1cc(-c2ccn3nc(N)c(C(=O)N[C@H]4CCOC4)c3n2)cc2c1C(=O)N([C@@H](C)C1CC1)C2` [Example 177], for which the IC50 in experiment [1] (Table 2, p120γ) was less than 100 nM; in experiment [2] (setting [4]), 100 to 1000 nM.
Take `Cc1cc(-c2ccn3nc(N)c(C(=O)NC[C@H](C)O)c3n2)cc2c1C(=O)N([C@@H](C)C1CC1)C2` [Example 234]: the half-inhibitory concentration (IC50) in experiment [1] (Table 2, p120γ) is less than 100 nM; in experiment [2] (setting [4]), 100 to 1000 nM.
Take `C[C@@H](C1CC1)N1Cc2cc(-c3ccn4nc(N)c(C(=O)NCCS(C)(=O)=O)c4n3)cc(C(F)(F)F)c2C1=O` [Example 337]: the IC50 in experiment [1] (Table 3, p120γ) was less than 100 nM; in experiment [2] (setting [7]), 100 to 1000 nM.
As for `Cc1cc(-c2ccn3nc(N)c(C(=O)N[C@H]4CNC(=O)C4)c3n2)cc2c1C(=O)N([C@@H](C)C1CC1)C2` [Example 10, 2-Amino-5-{2-[(1S)-1-cyclopropylethyl]-7-methyl-1-oxo-2,3-dihydro-1H-isoindol-5-yl}-N-[(3R)-5-oxopyrrolidin-3-yl]pyrazolo[1,5-a]pyrimidine-3-carboxamide], the IC50 is less than 100 nM in experiment [1] (Table 1, p120γ) and less than 100 nM in experiment [2] (setting [6]).
For `Cc1cc(-c2ccn3nc(N)c(C(=O)NC4CC4)c3n2)cc2c1C(=O)N([C@H](C)c1cccnc1)C2` [Example 333], the IC50 is less than 100 nM in experiment [1] (Table 2, p120γ) and more than 1000 nM in experiment [2] (setting [4]).
Take `C[C@@H](C1CC1)N1Cc2cc(-c3ccn4nc(N)c(C(=O)Nc5cccc(C#N)c5)c4n3)cc(NS(C)(=O)=O)c2C1=O` [Example 386]: the results for the concentration for half-maximal inhibition (IC50) in experiment [1] and in experiment [2] (setting [5]) were less than 100 nM and 100 to 1000 nM, respectively.
Turning to `C[C@@H](C1CC1)N1Cc2cc(-c3ccn4nc(N)c(C(=O)N[C@H]5CC[C@@](C)(O)CC5)c4n3)cc(NS(C)(=O)=O)c2C1=O` [Example 89, 2-Amino-5-{2-[(1S)-1-cyclopropylethyl]-7-methanesulfonamido-1-oxo-2,3-dihydro-1H-isoindol-5-yl}-N-[cis-4-hydroxy-4-methylcyclohexyl]pyrazolo[1,5-a]pyrimidine-3-carboxamide], the IC50 in experiment [1] (Table 1, p120γ) is less than 100 nM; in experiment [2] (setting [6]), less than 100 nM.
Consider `Cc1cc(-c2ccn3nc(N)c(C(=O)N[C@@H](C)c4cccnc4)c3n2)cc2c1C(=O)N([C@@H](C)C1CC1)C2` [Example 212], for which the half-inhibitory concentration (IC50) in experiment [1] (Table 2, p120γ) is less than 100 nM; in experiment [2] (setting [4]), 100 to 1000 nM.
As for `Cc1cc(-c2ccn3nc(N)c(C(=O)N[C@H]4CCNC4)c3n2)cc2c1C(=O)N([C@@H](C)C1CC1)C2` [Example 232], the 50% inhibitory concentration (IC50) in experiment [1] (Table 2, p120γ) was less than 100 nM; in experiment [2] (setting [4]), 100 to 1000 nM.
As for `Cc1cc(-c2ccn3nc(N)c(C(=O)NC(C)CO)c3n2)cc2c1C(=O)N([C@@H]1CCC[C@@H](O)C1)C2` (stereo partly shown) [Example 325], the half-inhibitory concentration (IC50) in experiment [1] (Table 2, p120γ) is less than 100 nM; in experiment [2] (setting [4]), more than 1000 nM.
`C[C@@H](C1CC1)N1Cc2cc(-c3ccn4nc(N)c(C(=O)Nc5cccnc5)c4n3)cc(OC(F)F)c2C1=O` [Example 161, 2-Amino-5-{2-[(1S)-1-cyclopropylethyl]-7-(difluoromethoxy)-1-oxo-2,3-dihydro-1H-isoindol-5-yl}-N-(pyridin-3-yl)pyrazolo[1,5-a]pyrimidine-3-carboxamide]: the IC50 in experiment [1] (Table 1, p120γ) was less than 100 nM; in experiment [2] (setting [6]), less than 100 nM.

Usually IC50 stands for the midpoint of a concentration-inhibition curve.

Source of the values: US20230024302A1, “2,3,5-TRISUBSTITUTED PYRAZOLO[1,5-A]PYRIMIDINE COMPOUNDS” (Arcus Biosciences, Inc., priority 2019, published 2023).
